This passage reports IC50 results from US20250368634A1, “PHENYL AMIDE COMPOUNDS AND METHODS OF USE” (SCHRÖDINGER, INC., priority 2022, published 2025).

As a reminder, the pIC50 is −log10 of the IC50, conventionally taken in molar units. A low value points to a high IC50.

pIC50: −log10 of the molar value.

Chain of SOS1-KRas (G12C) (Q07889 564-1049, stated change not applied): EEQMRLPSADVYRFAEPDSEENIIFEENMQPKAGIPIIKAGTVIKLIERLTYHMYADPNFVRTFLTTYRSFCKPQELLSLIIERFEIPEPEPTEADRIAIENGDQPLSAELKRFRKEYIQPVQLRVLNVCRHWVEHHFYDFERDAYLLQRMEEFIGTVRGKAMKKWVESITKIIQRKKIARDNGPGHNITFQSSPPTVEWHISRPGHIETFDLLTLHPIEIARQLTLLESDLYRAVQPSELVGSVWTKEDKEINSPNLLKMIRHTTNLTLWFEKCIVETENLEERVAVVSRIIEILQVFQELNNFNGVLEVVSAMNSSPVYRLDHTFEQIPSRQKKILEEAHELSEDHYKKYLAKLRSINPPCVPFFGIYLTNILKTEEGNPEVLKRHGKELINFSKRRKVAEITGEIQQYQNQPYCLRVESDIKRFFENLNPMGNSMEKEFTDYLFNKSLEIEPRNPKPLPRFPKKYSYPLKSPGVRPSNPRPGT

One assay concerns the target SOS1-KRas (G12C) (Homo sapiens (Human), UniProt Q07889). Kind of assay: SOS1-KRas (G12C) FRET Assay. Type of assay: binding.
Conditions: not given
`C[C@@H]1CC(F)(F)CN1c1cc(C(=O)N[C@H](C)c2cccc(C(F)F)c2F)c(NC2CCN(C)CC2)cc1F` (single isomer, unassigned) [Example 36] gave a pIC50 of 7.01.

Turning to `Cc1c([C@@H](C)NC(=O)c2cc(-c3cnn(C)c3)c(F)cc2NC2CCN(C)CC2)cccc1C(F)(F)F` [Example 11, (R)-4-fluoro-5-(1-methyl-1H-pyrazol-4-yl)-N-(1-(2-methyl-3-(trifluoromethyl)phenyl)ethyl)-2-((1-methylpiperidin-4-yl)amino)benzamide], the pIC50 was 6.83.

Consider `C[C@@H](NC(=O)c1cc(N2CC3CC(C2)O3)c(F)cc1NC1CCN(C)CC1)c1cccc(C(F)F)c1F` [Example 6, 5-(6-oxa-3-azabicyclo[3.1.1]heptan-3-yl)-N—((R)-1-(3-(difluoromethyl)-2-fluorophenyl)ethyl)-4-fluoro-2-((1-methylpiperidin-4-yl)amino)benzamide], for which the pIC50 is 7.06. On the same count and under the same terms, the same measure for `C[C@@H](NC(=O)c1cc(N2CCOCC2)c(F)cc1N[C@@H]1CN2CCC1CC2)c1cccc(C(F)F)c1F` [Example 16, N—((R)-1-(3-(difluoromethyl)-2-fluorophenyl)ethyl)-4-fluoro-5-morpholino-2-(((S)-quinuclidin-3-yl)amino)benzamide]: 7.38; for `C[C@@H](NC(=O)c1cc(-c2ccncc2)c(F)cc1N[C@H]1CN2CCC1CC2)c1cccc(C(F)F)c1F` (single isomer, unassigned) [Example 58]: 8.10. On the same count and under the same terms, the same measure for `C[C@@H](NC(=O)c1cc(N2CCOCC2)c(F)cc1NC1CCN(C)CC1)c1cccc(C(F)F)c1F` [Example 1, (R)—N-(1-(3-(difluoromethyl)-2-fluorophenyl)ethyl)-4-fluoro-2-((1-methylpiperidin-4-yl)amino)-5-morpholinobenzamide]: 7.69; for `C[C@@H](NC(=O)c1cc(N2CC[C@@]23CCOC3)c(F)cc1NC1CCN(C)CC1)c1cccc(C(F)F)c1F` (single isomer, unassigned) [Example 34]: 6.95. Still for that read-out and setting: the same measure for `C[C@@H](NC(=O)c1cc(N2CCN(C)CC2)c(F)cc1NC1CCN(C)CC1)c1cccc(C(F)F)c1F` [Example 5, (R)—N-(1-(3-(difluoromethyl)-2-fluorophenyl)ethyl)-4-fluoro-5-(4-methylpiperazin-1-yl)-2-((1-methylpiperidin-4-yl)amino)benzamide]: 7.61.

The assay is the same for the next values; noted with them: inhibition of SOS1:KRAS interaction; 0.5 nM His10-SOS1 (res. 564-1049), 2.5 nM GST-KRAS (res. 1-169, G12C); 2 hrs at RT.
On to `CC(C)NC(=O)c1cc(C(=O)N[C@H](C)c2cccc(C(F)F)c2F)c(NC2CCN(C)CC2)cc1F` [Example 76, (R)—N1-(1-(3-(difluoromethyl)-2-fluorophenyl)ethyl)-4-fluoro-N3-isopropyl-6-((1-methylpiperidin-4-yl)amino)isophthalamide], for which the negative-log IC50 (pIC50) was 6.06. On the same count and under the same terms, in the case of `COC(=O)c1cc(C(=O)N[C@H](C)c2cccc(C(F)F)c2F)c(NC2CCN(C)CC2)cc1F` [Example 71, methyl (R)-5-((1-(3-(difluoromethyl)-2-fluorophenyl)ethyl)carbamoyl)-2-fluoro-4-((1-methylpiperidin-4-yl)amino)benzoate] it was 7.03; in that of `Cc1c([C@@H](C)NC(=O)c2cc(-c3ccncc3)c(F)cc2NC2CCN(C)CC2)cccc1C(F)(F)F` [Example 56, (R)-4-fluoro-N-(1-(2-methyl-3-(trifluoromethyl)phenyl)ethyl)-2-((1-methylpiperidin-4-yl)amino)-5-(pyridin-4-yl)benzamide], 7.46; in that of `C[C@@H](NC(=O)c1cc(N2CCC(F)(F)C2)c(F)cc1N[C@H]1CN2CCC1CC2)c1cccc(C(F)F)c1F` [Example 27, N—((R)-1-(3-(difluoromethyl)-2-fluorophenyl)ethyl)-5-(3,3-difluoropyrrolidin-1-yl)-4-fluoro-2-(((R)-quinuclidin-3-yl)amino)benzamide], 7.65. The compound `C[C@@H](NC(=O)c1cc(N2CCC2)c(F)cc1N[C@H]1CN2CCC1CC2)c1cccc(C(F)F)c1F` [Example 29, 5-(azetidin-1-yl)-N—((R)-1-(3-(difluoromethyl)-2-fluorophenyl)ethyl)-4-fluoro-2-(((R)-quinuclidin-3-yl)amino)benzamide] showed a pIC50 of 6.69. Compound `C[C@@H](NC(=O)c1cc(N2CCOCC2)c(Cl)cc1N[C@H]1CN2CCC1CC2)c1cccc(C(F)F)c1F` [Example 80, 4-chloro-N—((R)-1-(3-(difluoromethyl)-2-fluorophenyl)ethyl)-5-morpholino-2-(((R)-quinuclidin-3-yl)amino)benzamide] showed a pIC50 of 7.35. Still for that read-out and setting: in the case of `C[C@@H](CN(C)C)Nc1cc(F)c(N2CCOCC2)cc1C(=O)N[C@H](C)c1cccc(C(F)F)c1F` (single isomer, unassigned) [Example 50] it was 6.70; in that of `C[C@@H](NC(=O)c1cc(N2C3CCCC2COC3)c(F)cc1NC1CCN(C)CC1)c1cccc(C(F)F)c1F` [Example 39, 5-(3-oxa-9-azabicyclo[3.3.1]nonan-9-yl)-N-((R)-1-(3-(difluoromethyl)-2-fluorophenyl)ethyl)-4-fluoro-2-((1-methylpiperidin-4-yl)amino)benzamide], 6.96; in that of `C[C@@H](NC(=O)c1cc(-c2ccn(C)c(=O)c2)c(F)cc1NC1CCN(C)CC1)c1cccc(C(F)F)c1F` [Example 60, (R)—N-(1-(3-(difluoromethyl)-2-fluorophenyl)ethyl)-4-fluoro-5-(1-methyl-2-oxo-1,2-dihydropyridin-4-yl)-2-((1-methylpiperidin-4-yl)amino)benzamide], 7.96. Same read-out and setting: the same measure for `C[C@@H](NC(=O)c1cc(N2CCOCC2)c(C(F)F)cc1NC1CCN(C)CC1)c1cccc(C(F)F)c1F` [Example 79, (R)-4-(difluoromethyl)-N-(1-(3-(difluoromethyl)-2-fluorophenyl)ethyl)-2-((1-methylpiperidin-4-yl)amino)-5-morpholinobenzamide]: 7.41. In turn, `C[C@@H](NC(=O)c1cc(N2CCCC2)c(F)cc1N[C@H]1CN2CCC1CC2)c1cccc(C(F)F)c1F` [Example 33, N—((R)-1-(3-(difluoromethyl)-2-fluorophenyl)ethyl)-4-fluoro-5-(pyrrolidin-1-yl)-2-(((R)-quinuclidin-3-yl)amino)benzamide] had a negative-log IC50 (pIC50) of 7.46. `C[C@@H](NC(=O)c1cc(N2CCOC(F)(F)C2)c(F)cc1NC1CCN(C)CC1)c1cccc(C(F)F)c1F` [Example 40, (R)-N-(1-(3-(difluoromethyl)-2-fluorophenyl)ethyl)-5-(2,2-difluoromorpholino)-4-fluoro-2-((1-methylpiperidin-4-yl)amino)benzamide] showed a negative logarithm of the IC50 (pIC50) of 7.66. `C[C@@H](NC(=O)c1cc(N2CCOCC2)c(C#N)cc1NC1CCN(C)CC1)c1cccc(C(F)F)c1F` [Example 4, (R)-4-cyano-N-(1-(3-(difluoromethyl)-2-fluorophenyl)ethyl)-2-((1-methylpiperidin-4-yl)-amino)-5-morpholinobenzamide]: the pIC50 was 7.82. Same read-out and setting: the same measure for `C[C@@H](NC(=O)c1cc(N2CC3COCC(C3)C2)c(F)cc1NC1CCN(C)CC1)c1cccc(C(F)F)c1F` [Example 38, 5-(3-oxa-7-azabicyclo[3.3.1]nonan-7-yl)-N-((R)-1-(3-(difluoromethyl)-2-fluorophenyl)ethyl)-4-fluoro-2-((1-methylpiperidin-4-yl)amino)benzamide]: 7.45; for `C[C@@H](NC(=O)c1cc(-c2ccncc2)c(F)cc1NC1CCN(C)CC1)c1cccc(C(F)F)c1F` [Example 57, (R)—N-(1-(3-(difluoromethyl)-2-fluorophenyl)ethyl)-4-fluoro-2-((1-methylpiperidin-4-yl)amino)-5-(pyridin-4-yl)benzamide]: 8.01; for `CC(=O)N1CCN(c2cc(C(=O)N[C@H](C)c3cccc(C(F)(F)F)c3C)c(NC3CCN(C)CC3)cc2F)CC1` [Example 22, (R)-5-(4-acetylpiperazin-1-yl)-4-fluoro-N-(1-(2-methyl-3-(trifluoromethyl)phenyl)ethyl)-2-((1-methylpiperidin-4-yl)amino)benzamide]: 7.69. In turn, `C[C@@H](NC(=O)c1cc(C(=O)N2CCC(F)(F)CC2)c(F)cc1NC1CCN(C)CC1)c1cccc(C(F)F)c1F` [Example 74, (R)—N-(1-(3-(difluoromethyl)-2-fluorophenyl)ethyl)-5-(4,4-difluoropiperidine-1-carbonyl)-4-fluoro-2-((1-methylpiperidin-4-yl)amino)benzamide] gave a negative-log IC50 (pIC50) of 6.05. Still for that read-out and setting: the same measure for `Cc1c(C#N)cccc1[C@@H](C)NC(=O)c1cc(N2CCOCC2)c(F)cc1NC1CCN(C)CC1` [Example 46, (R)—N-(1-(3-cyano-2-methylphenyl)ethyl)-4-fluoro-2-((1-methylpiperidin-4-yl)amino)-5-morpholinobenzamide]: 7.13. Still for that read-out and setting: in the case of `C[C@@H](NC(=O)c1cc(N2C[C@H]3C[C@@H]2CO3)c(F)cc1NC1CCN(C)CC1)c1cccc(C(F)F)c1F` [Example 2, 5-((1R,4R)-2-oxa-5-azabicyclo[2.2.1]heptan-5-yl)-N—((R)-1-(3-(difluoromethyl)-2-fluorophenyl)ethyl)-4-fluoro-2-((1-methylpiperidin-4-yl)amino)benzamide] it was 7.00; in that of `C[C@@H](NC(=O)c1cc(C23CC(C2)C3)c(F)cc1N[C@H]1CN2CCC1CC2)c1cccc(C(F)F)c1F` [Example 69, 5-(bicyclo[1.1.1]pentan-1-yl)-N—((R)-1-(3-(difluoromethyl)-2-fluorophenyl)ethyl)-4-fluoro-2-(((R)-quinuclidin-3-yl)amino)benzamide], 6.92; in that of `C[C@@H](NC(=O)c1cc(C23CC(C2)C3)c(F)cc1N[C@@H]1CN2CCC1CC2)c1cccc(C(F)F)c1F` [Example 70, 5-(bicyclo[1.1.1]pentan-1-yl)-N—((R)-1-(3-(difluoromethyl)-2-fluorophenyl)ethyl)-4-fluoro-2-(((S)-quinuclidin-3-yl)amino)benzamide], 6.46. `C[C@@H](NC(=O)c1cc(-c2ccncn2)c(F)cc1NC1CCN(C)CC1)c1cccc(C(F)F)c1F` [Example 66, (R)—N-(1-(3-(difluoromethyl)-2-fluorophenyl)ethyl)-4-fluoro-2-((1-methylpiperidin-4-yl)amino)-5-(pyrimidin-4-yl)benzamide] gave a negative-log IC50 (pIC50) of 7.46.
